# Measurements as given in US20230048888A1, “USE OF TRIAZOLOTRIAZINE DERIVATIVE IN TREATMENT OF DISEASES” (ZHEJIANG VIMGREEN PHARMACEUTICALS, LTD., priority 2019, published 2023).
# Like-named read-outs stand apart in the source and are kept apart here.
# Experiments:
# [1] = Stability of acetate crystal at 60° C. closed and 40° C./75% RH open, HPLC purity and XRPD; type: physicochemical; settings: for XPRD (crystal form after storage): 7 days; for Purity over 7 days (area %): initial purity 98.79 area %
# Experimental: A certain amount of acetate crystal was held at 60° C. in a closed condition and at 40° C./75% RH in an open condition for a maximum of 7 days. Samples were taken on days 0, 3, and 7 and diluted with a diluent to about 0.3 mg/mL for HPLC purity testing. The solid samples were tested by XRPD to determine the crystal form.
# [2] = Pharmacokinetics of acetate of Compound 22 in SD rats with single and repeated administration; type: in vivo; settings: for clearance / Vd / AUC(0-t) / half-life / bioavailability / Cmax / C0 / Tmax: rat, plasma; for Tmax: read-out: Tmax (median)
# Experimental: The formulation for Group 5 was prepared before administration on Day 1, and then, divided into daily doses and stored at 5±3° C. After taking out the formulations on the day of administration, the formulations should be let stand at room temperature for at least 30 minutes before administration.
# After blood collection, the blood collection tube containing the anticoagulant was turned upside down several times to mix well, and placed on wet ice before centrifugation. Within 60 minutes after blood collection, the samples were centrifuged at 2000 g for 10 minutes at 2-8° C. to separate red blood cells, thereby obtaining plasma samples. The plasma samples were transferred to cryovials and stored at −75±15° C. until analysis.
# Blood samples were collected from SD rats at room temperature before administration and within 24 hours after administration. All collected samples were placed on wet ice before centrifugation and stored at −75±15° C. until analysis.
# The mass spectrometer was Applied Biosystems/AB Sciex Triple Quad 4500.
# Pharmacokinetic data was calculated using the linear logarithmic trapezoidal method, with a weight of 1/(Y*Y). Samples with the sample concentration below the lower limit of quantification were excluded from the calculation of pharmacokinetic parameters. […] The mean time to peak (Tmax) was represented as a median.
smiles,measurement,setting,value
"CC(=O)O.Nc1nc(NCCc2ccc(NC3COC3)cc2)nc2nc(-c3ccco3)nn12 [Acetate of Compound 22, 2-(furan-2-yl)-N5-(4-(oxetane-3-ylamino)phenethyl)-[1,2,4]triazolo[1,5-a][1,3,5]triazine-5,7-diamine acetate]",XPRD (crystal form after storage),[1]; 40° C./75% RH open,Transformed
same,Purity over 7 days (area %),[1]; 40° C./75% RH open,98.99 area %
same,Degradation under test conditions,"[1]; 60° C. and 40° C./75% RH, up to 7 days",no significant degradation
same,XPRD (crystal form after storage),[1]; 60° C. closed,Unchanged
same,Purity over 7 days (area %),[1]; 60° C. closed,99.01 area %
same,exposure ratio between Day 7 and Day 1,[2]; 63 mg/kg daily for 7 consecutive days,less than 2
same,F,"[2]; Group 2 PO 21 mg/kg single, Female",70.8 ± 6.75%
same,F,"[2]; Group 2 PO 21 mg/kg single, Male",82.2 ± 20.6%
same,F,"[2]; Group 2 PO 21 mg/kg single, Overall",76.5 ± 15.1%
same,F,"[2]; Group 3 PO 63 mg/kg single, Female",74.1 ± 21.9%
same,F,"[2]; Group 3 PO 63 mg/kg single, Male",56.9 ± 1.98%
same,F,"[2]; Group 3 PO 63 mg/kg single, Overall",65.5 ± 16.8%
same,F,"[2]; Group 4 PO 189 mg/kg single, Female",44.9 ± 10.1%
same,F,"[2]; Group 4 PO 189 mg/kg single, Male",50.9 ± 5.28%
same,F,"[2]; Group 4 PO 189 mg/kg single, Overall",47.9 ± 7.91%
same,F,"[2]; Group 5 PO 63 mg/kg repeated, Day 1, Female",77.0 ± 12.5%
same,F,"[2]; Group 5 PO 63 mg/kg repeated, Day 1, Male",51.9 ± 20.5%
same,F,"[2]; Group 5 PO 63 mg/kg repeated, Day 1, Overall",64.5 ± 20.5%
same,clearance,"[2]; Sprague-Dawley (SD), intravenous injection 2.0 mg/kg, read-out: clearance rate (CL)",6.02 mL/min/kg
same,Vd,"[2]; Sprague-Dawley (SD), intravenous injection 2.0 mg/kg, read-out: steady-state apparent volume of distribution (Vss)",0.457 L/kg
same,AUC(0-t),"[2]; Sprague-Dawley (SD), iv, 2 mg/kg, intravenous injection 2.0 mg/kg, read-out: drug exposure AUC0-t",5.36 µg·h/mL
same,half-life,"[2]; Sprague-Dawley (SD), iv, 2 mg/kg, intravenous injection 2.0 mg/kg, read-out: half-life T1/2 (converted)",3.39 h
same,bioavailability,"[2]; Sprague-Dawley (SD), oral 21 mg/kg",76.5%
same,bioavailability,"[2]; Sprague-Dawley (SD), oral 63 mg/kg",65.5%
same,bioavailability,"[2]; Sprague-Dawley (SD), oral 189 mg/kg",47.9%
same,AUC(0-t),"[2]; Sprague-Dawley (SD), oral, 63 mg/kg, 63 mg/kg daily for 7 consecutive days, Day 1, read-out: AUC0-t",111 µg·h/mL
same,AUC(0-t),"[2]; Sprague-Dawley (SD), oral, 63 mg/kg, 63 mg/kg daily for 7 consecutive days, Day 7, read-out: AUC0-t",127 µg·h/mL
same,AUC(0-t),"[2]; Sprague-Dawley (SD), po, 21 mg/kg, oral 21 mg/kg, read-out: drug exposure (AUC0-t)",42.8 µg·h/mL
same,Cmax,"[2]; Sprague-Dawley (SD), po, 21 mg/kg, oral 21 mg/kg, read-out: maximum plasma concentration (Cmax)",18400 ng/mL
same,AUC(0-t),"[2]; Sprague-Dawley (SD), po, 63 mg/kg, oral 63 mg/kg, read-out: drug exposure (AUC0-t)",112 µg·h/mL
same,Cmax,"[2]; Sprague-Dawley (SD), po, 63 mg/kg, oral 63 mg/kg, read-out: maximum plasma concentration (Cmax)",27400 ng/mL
same,AUC(0-t),"[2]; Sprague-Dawley (SD), po, 189 mg/kg, oral 189 mg/kg, read-out: drug exposure (AUC0-t)",241 µg·h/mL
same,Cmax,"[2]; Sprague-Dawley (SD), po, 189 mg/kg, oral 189 mg/kg, read-out: maximum plasma concentration (Cmax)",51800 ng/mL
same,C0,"[2]; Sprague-Dawley, Group 1 IV 2.0 mg/kg single, Female",8140 ± 820 ng/mL
same,clearance,"[2]; Sprague-Dawley, Group 1 IV 2.0 mg/kg single, Female, read-out: CL",5.66 ± 0.166 mL/min/kg
same,Vd,"[2]; Sprague-Dawley, Group 1 IV 2.0 mg/kg single, Female, read-out: Vss",0.465 ± 0.122 L/kg
same,C0,"[2]; Sprague-Dawley, Group 1 IV 2.0 mg/kg single, Male",7060 ± 699 ng/mL
same,clearance,"[2]; Sprague-Dawley, Group 1 IV 2.0 mg/kg single, Male, read-out: CL",6.56 mL/min/kg
same,Vd,"[2]; Sprague-Dawley, Group 1 IV 2.0 mg/kg single, Male, read-out: Vss",0.445 L/kg
same,C0,"[2]; both sexes, Sprague-Dawley, Group 1 IV 2.0 mg/kg single, Overall",7600 ± 905 ng/mL
same,clearance,"[2]; both sexes, Sprague-Dawley, Group 1 IV 2.0 mg/kg single, Overall, read-out: CL",6.02 ± 0.668 mL/min/kg
same,Vd,"[2]; both sexes, Sprague-Dawley, Group 1 IV 2.0 mg/kg single, Overall, read-out: Vss",0.457 ± 0.088 L/kg
same,AUC(0-t),"[2]; both sexes, Sprague-Dawley, iv, 2 mg/kg, Group 1 IV 2.0 mg/kg single, Overall, read-out: AUC0-t",5.36 ± 0.664 µg·h/mL
same,half-life,"[2]; both sexes, Sprague-Dawley, iv, 2 mg/kg, Group 1 IV 2.0 mg/kg single, Overall, read-out: T1/2 (converted)",3.39 ± 2.9 h
same,AUC(0-t),"[2]; both sexes, Sprague-Dawley, po, 21 mg/kg, Group 2 PO 21 mg/kg single, Overall, read-out: AUC0-t",42.8 ± 7.21 µg·h/mL
same,Cmax,"[2]; both sexes, Sprague-Dawley, po, 21 mg/kg, Group 2 PO 21 mg/kg single, Overall, read-out: Cmax",18400 ± 4040 ng/mL
same,half-life,"[2]; both sexes, Sprague-Dawley, po, 21 mg/kg, Group 2 PO 21 mg/kg single, Overall, read-out: T1/2 (converted)",3.47 ± 0.596 h
same,Tmax,"[2]; both sexes, Sprague-Dawley, po, 21 mg/kg, Group 2 PO 21 mg/kg single, Overall",0.5 h
same,AUC(0-t),"[2]; both sexes, Sprague-Dawley, po, 63 mg/kg, Group 3 PO 63 mg/kg single, Overall, read-out: AUC0-t",112 ± 37.2 µg·h/mL
same,Cmax,"[2]; both sexes, Sprague-Dawley, po, 63 mg/kg, Group 3 PO 63 mg/kg single, Overall, read-out: Cmax",27400 ± 7200 ng/mL
same,half-life,"[2]; both sexes, Sprague-Dawley, po, 63 mg/kg, Group 3 PO 63 mg/kg single, Overall, read-out: T1/2 (converted)",3.01 ± 0.63 h
same,Tmax,"[2]; both sexes, Sprague-Dawley, po, 63 mg/kg, Group 3 PO 63 mg/kg single, Overall",1 h
same,AUC(0-t),"[2]; both sexes, Sprague-Dawley, po, 63 mg/kg, Group 5 PO 63 mg/kg repeated, Day 1, Overall, read-out: AUC0-t",111 ± 42.1 µg·h/mL
same,Cmax,"[2]; both sexes, Sprague-Dawley, po, 63 mg/kg, Group 5 PO 63 mg/kg repeated, Day 1, Overall, read-out: Cmax",28800 ± 11400 ng/mL
